± gives the standard deviation of the averaged measurements.
Compound: O=S(=O)(O)CCC(F)(F)C(F)(F)C(F)(F)C(F)(F)C(F)(F)C(F)(F)C(F)(F)C(F)(F)F [8:2 Fluorotelomer sulfonic acid] (in DMSO)
Assay: level (log10 ratio to DMSO vehicle control); higher = higher biomarker level / cell amount than vehicle control
Method: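 BioMAP Diversity Plus panel of 12 human primary cell co-culture systems (3C, 4H, LPS, SAg, BT, BF4T, BE3C, CASM3C, HDF3CGF, KF3CT, MyoF, Mphg). Compounds were added 1 h before stimulation and left for 24 h (MyoF 48 h; BT 72 h for soluble read-outs or 6 d for IgG). Biomarkers were read by ELISA, cytotoxicity by SRB, PBMC viability and proliferation by Alamar Blue. Each well value was divided by the mean of 8 DMSO control wells on the same plate and log10 transformed; duplicate blinded samples were tested at 4 concentrations.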

Test System	level (log10) (6700 nM)	level (log10) (20000 nM)	level (log10) (60000 nM)
KF3CT:CXCL10/IP-10	-0.015 ± 0.0028	-0.044 ± 0.0042	-0.0495 ± 0.00071
HDF3CGF:CXCL11/I-TAC	-0.053 ± 0.027	-0.0285 ± 0.03	-0.0865 ± 0.067
KF3CT:CXCL9/MIG	0.005 ± 0.017	0.003 ± 0.0099	0.01 ± 0.0057
KF3CT:CCL2/MCP-1	-0.0135 ± 0.005	-0.0585 ± 0.029	-0.0475 ± 0.011
MyoF:TIMP-1	-0.0185 ± 0.0035	0.0095 ± 0.021	-0.008 ± 0.018
HDF3CGF:CXCL10/IP-10	-0.014 ± 0.0014	-0.0315 ± 0.0092	-0.06 ± 0.016
CASM3C:LDLR	-0.0005 ± 0.0064	0.0135 ± 0.013	0.0415 ± 0.026
lMphg:CCL2/MCP-1	0.0075 ± 0.019	-0.019 ± 0.016	0.0155 ± 0.00071
CASM3C:HLA-DR	0.0155 ± 0.023	-0.009 ± 0.024	-0.015 ± 0.017
CASM3C:SRB	0.0075 ± 0.005	0.0055 ± 0.005	0.0105 ± 0.0035
MyoF:CD106/VCAM-1	-0.0035 ± 0.0021	-0.0325 ± 0.016	-0.084 ± 0.02
CASM3C:CD87/uPAR	0.025 ± 0.0099	0.022 ± 0.0014	-0.0055 ± 0.016
CASM3C:CXCL9/MIG	-0.03 ± 0.02	-0.032 ± 0.0071	0 ± 0.021
KF3CT:CD54/ICAM-1	-0.026 ± 0.02	-0.0495 ± 0.018	-0.0515 ± 0.005
HDF3CGF:Proliferation 72hr	0.0275 ± 0.044	0.0785 ± 0.06	0.107 ± 0.0014
HDF3CGF:EGFR	-0.011 ± 0.033	-0.0455 ± 0.03	-0.101 ± 0.026
HDF3CGF:CCL2/MCP-1	0.0005 ± 0.022	-0.008 ± 0.03	0.0115 ± 0.022
HDF3CGF:CD54/ICAM-1	-0.012 ± 0.017	-0.04 ± 0.011	-0.0805 ± 0.012
MyoF:SRB	-0.0005 ± 0.0021	-0.009 ± 0.0014	-0.0035 ± 0.0035
MyoF:Collagen III	-0.008 ± 0.017	-0.04 ± 0.031	-0.0355 ± 0.023
KF3CT:uPA	0.007 ± 0.0042	0.006 ± 0.024	0.012 ± 0.016
KF3CT:PAI-I	-0.0065 ± 0.022	-0.029 ± 0.014	-0.0255 ± 0.019
MyoF:bFGF	0.0045 ± 0.012	0.006 ± 0.023	0.0265 ± 0.0021
HDF3CGF:MMP-1	0.0205 ± 0.012	-0.017 ± 0.028	-0.0835 ± 0.036
BE3C:MMP-1	0.048 ± 0.024	0.1715 ± 0.00071	0.232 ± 0.027
lMphg:M-CSF	-0.0075 ± 0.033	-0.014 ± 0.013	0.012
MyoF:MMP-1	-0.0245 ± 0.043	-0.0365 ± 0.028	0.0175 ± 0.005

Test System	level (log10) (6700 nM)	level (log10) (20000 nM)	level (log10) (60000 nM)
CASM3C:IL-6	0.0025 ± 0.029	-0.0075 ± 0.0064	-0.0005 ± 0.018
HDF3CGF:SRB	-0.044 ± 0.064	-0.017 ± 0.1	0.168 ± 0.037
MyoF:Decorin	0.0555 ± 0.029	0.024 ± 0.03	-0.001 ± 0.0014
BE3C:PAI-I	0.044 ± 0.014	0.126 ± 0.026	0.0955 ± 0.011
lMphg:CD69	-0.0695 ± 0.023	-0.059 ± 0.0028	-0.173 ± 0.025
3C:CD62E/E-Selectin	0.013 ± 0.025	0.0385 ± 0.0021	0.0715 ± 0.0078
KF3CT:SRB	-0.008 ± 0.0014	-0.0145 ± 0.0021	-0.004 ± 0.0071
CASM3C:CD141/Thrombomodulin	-0.0045 ± 0.029	-0.026 ± 0.04	-0.0265 ± 0.0035
BE3C:tPA	0.0755 ± 0.021	0.0535 ± 0.0064	-0.021 ± 0.0099
CASM3C:CD106/VCAM-1	0.0015 ± 0.029	-0.0425 ± 0.025	-0.071 ± 0.033
CASM3C:M-CSF	0.0005 ± 0.015	-0.0115 ± 0.0021	0.037 ± 0.028
HDF3CGF:CXCL9/MIG	-0.048 ± 0.034	-0.0575 ± 0.04	0.061 ± 0.034
MyoF:CXCL8/IL-8	-0.0085 ± 0.03	-0.0885 ± 0.046	-0.157 ± 0.016
HDF3CGF:Collagen III	0.05 ± 0.014	0.0975 ± 0.0092	0.0145 ± 0.12
BE3C:uPA	0.006 ± 0.0071	0.0055 ± 0.0035	-0.002 ± 0.0028
KF3CT:IL-1alpha	-0.041 ± 0.027	-0.137 ± 0.033	-0.0655 ± 0.046
lMphg:CXCL8/IL-8	0.001 ± 0.0085	0.022 ± 0.013	0.0775 ± 0.0035
HDF3CGF:CXCL8/IL-8	-0.0145 ± 0.0064	-0.0045 ± 0.0035	-0.0015 ± 0.026
MyoF:alpha-SM Actin	0.034 ± 0.02	0.001 ± 0.014	-0.0125 ± 0.025
3C:CD142/Tissue Factor	-0.018 ± 0.065	0.001 ± 0.052	-0.0295 ± 0.046
HDF3CGF:Collagen I	0.007 ± 0.038	0.0195 ± 0.049	-0.0455 ± 0.17
CASM3C:CXCL8/IL-8	0.019 ± 0.018	-0.0065 ± 0.012	0.0035 ± 0.013
KF3CT:CXCL8/IL-8	0.016 ± 0.038	-0.03 ± 0.023	-0.131 ± 0.036
HDF3CGF:PAI-I	0.018 ± 0.034	-0.002 ± 0.021	0.0015 ± 0.0078
HDF3CGF:TIMP-1	0.0375 ± 0.0064	0.0435 ± 0.037	-0.0365 ± 0.077
BE3C:Keratin 8/18	0.007 ± 0.0042	0.017 ± 0.0085	0.043 ± 0.014
MyoF:Collagen IV	-0.0215 ± 0.019	-0.0335 ± 0.036	0.005 ± 0.0099

Test System	level (log10) (6700 nM)	level (log10) (20000 nM)	level (log10) (60000 nM)
3C:CD54/ICAM-1	-0.008 ± 0.0099	0.003 ± 0.013	0.034 ± 0.0042
HDF3CGF:M-CSF	-0.0035 ± 0.056	-0.014 ± 0.038	-0.0685 ± 0.04
3C:CD106/VCAM-1	0.002 ± 0.0014	0.009 ± 0.0028	0.019 ± 0.016
HDF3CGF:TIMP-2	-0.003 ± 0.016	-0.023 ± 0.016	-0.0475 ± 0.022
3C:CCL2/MCP-1	-0.01 ± 0.0085	-0.0335 ± 0.021	-0.0185 ± 0.005
CASM3C:PAI-I	-0.0015 ± 0.019	0.012 ± 0.018	0.0095 ± 0.012
KF3CT:TIMP-2	-0.033 ± 0.0042	0.0075 ± 0.0064	0.0225 ± 0.0021
lMphg:sIL-10	-0.078 ± 0.024	-0.216 ± 0.0057	-0.6535 ± 0.0064
CASM3C:Serum Amyloid A	0.0195 ± 0.0064	0.0475 ± 0.025	0.096 ± 0.0042
CASM3C:CCL2/MCP-1	-0.0095 ± 0.00071	-0.003 ± 0.0057	0.016 ± 0.04
3C:CD141/Thrombomodulin	-0.003 ± 0.024	-0.011 ± 0.034	0.0285 ± 0.037
lMphg:SRB-Mphg	0.003 ± 0.0028	-0.012 ± 0.014	-0.027 ± 0.013
MyoF:PAI-I	-0.008 ± 0.011	-0.009 ± 0.0042	0.0185 ± 0.019
HDF3CGF:CD106/VCAM-1	0.0015 ± 0.091	0.007 ± 0.073	-0.072 ± 0.045
MyoF:Collagen I	0.004 ± 0.0042	-0.0265 ± 0.026	-0.024 ± 0.0071
CASM3C:CD142/Tissue Factor	-0.045 ± 0.0042	-0.067 ± 0.027	-0.0195 ± 0.03
BE3C:MMP-9	0.0045 ± 0.0064	0.0325 ± 0.035	0.015 ± 0.031
lMphg:CD106/VCAM-1	-0.0355 ± 0.005	-0.042 ± 0.0071	-0.08 ± 0.0057
lMphg:IL-1alpha	-0.019 ± 0.014	-0.011 ± 0.028	-0.035 ± 0.05
KF3CT:MMP-9	-0.009 ± 0.0014	0.0165 ± 0.0078	-0.0335 ± 0.018
lMphg:CCL3/MIP-1alpha	0.0035 ± 0.03	0.0095 ± 0.026	0.0065 ± 0.032
lMphg:CD40	-0.026 ± 0.023	-0.052 ± 0.0028	-0.0995 ± 0.019
lMphg:CD62E/E-Selectin	0.0165 ± 0.0092	0.048 ± 0.0042	0.103 ± 0.0057
lMphg:SRB	-0.006 ± 0.02	-0.013 ± 0.017	-0.029 ± 0.0057
CASM3C:Proliferation	0.005 ± 0.072	0.0065 ± 0.022	0.0245 ± 0.023
BE3C:SRB	-0.007 ± 0.0071	-0.017	-0.025 ± 0.0085

From the supplement of paper PMC10331698
